Values joined by “and” are separate entries in the source; they are usually repeats but may differ in a detail not shown here. Equal entries are not always repeated. Toxic doses and inconclusive results are not listed.
System: P388 leukemia ip, CD2F1 mice, survival T/C
Assay: NCI In Vivo Anticancer Drug Screen. Data for tumor model P388 Leukemia (intraperitoneal) in CD2F1 (CDF1) mice
Conditions: endpoint: median survival time, higher = longer survival
Method in brief: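 Mice carrying the transplanted tumor received test compound or vehicle. Survival was recorded in each group, and the value is the treated-group measurement divided by that of the vehicle-treated control group.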

[1] = dose: 100.0 mg/kg/injection, schedule: Q01DX001 (ip), vehicle: Klucel (hydroxypropylcellulose) (HPC)
[2] = dose: 200.0 mg/kg/injection, schedule: Q01DX001 (ip), vehicle: Klucel (hydroxypropylcellulose) (HPC)
[3] = dose: 400.0 mg/kg/injection, schedule: Q01DX001 (ip), vehicle: Klucel (hydroxypropylcellulose) (HPC)
[4] = dose: 50.0 mg/kg/injection, schedule: Q01DX009 (ip), vehicle: Klucel (hydroxypropylcellulose) (HPC)
[5] = dose: 50.0 mg/kg/injection, schedule: Q01DX009 (ip), vehicle: saline with Tween-80
[6] = dose: 100.0 mg/kg/injection, schedule: Q01DX009 (ip), vehicle: saline with Tween-80
[7] = dose: 50.0 mg/kg/injection, schedule: Q04DX003 (ip), vehicle: Klucel (hydroxypropylcellulose) (HPC)
[8] = dose: 100.0 mg/kg/injection, schedule: Q04DX003 (ip), vehicle: Klucel (hydroxypropylcellulose) (HPC)
[9] = dose: 200.0 mg/kg/injection, schedule: Q04DX003 (ip), vehicle: Klucel (hydroxypropylcellulose) (HPC)
[10] = dose: 50.0 mg/kg/injection, schedule: Q01DX005 (ip), vehicle: saline with Tween-80
[11] = dose: 12.5 mg/kg/injection, schedule: Q01DX005 (ip), vehicle: saline
[12] = dose: 25.0 mg/kg/injection, schedule: Q01DX005 (ip), vehicle: saline
[13] = dose: 50.0 mg/kg/injection, schedule: Q01DX005 (ip), vehicle: saline
[14] = dose: 6.25 mg/kg/injection, schedule: Q01DX009 (ip), vehicle: Klucel (hydroxypropylcellulose) (HPC)
[15] = dose: 12.5 mg/kg/injection, schedule: Q01DX009 (ip), vehicle: Klucel (hydroxypropylcellulose) (HPC)
[16] = dose: 25.0 mg/kg/injection, schedule: Q01DX009 (ip), vehicle: Klucel (hydroxypropylcellulose) (HPC)
[17] = dose: 12.5 mg/kg/injection, schedule: Q01DX009 (ip), vehicle: saline with Tween-80
[18] = dose: 25.0 mg/kg/injection, schedule: Q01DX009 (ip), vehicle: saline with Tween-80

`Cc1ccc(S(=O)(=O)N/N=C/c2c(Br)nc3sccn23)cc1` was tested, and the T/C [1] was 106 % of control, the T/C [2] was 108 % of control and the T/C [3] was 106 % of control.

In the case of `CC(=O)Nc1ccn(C)c1[N+](=O)[O-]`, the T/C [1] is reported as 100 % of control, the T/C [2] is reported as 97 % of control and the T/C [3] is reported as 102 % of control.

`CC(=O)OC1CC(n2cc(C)c(=O)[nH]c2=O)OC1COP(=O)(N1CC1)N1CC1` (stereo not drawn) was tested, and the T/C (dose: 25.0 mg/kg/injection, schedule: Q04DX003 (ip), vehicle: saline with Tween-80) was 104 % of control, the T/C (dose: 50.0 mg/kg/injection, schedule: Q04DX003 (ip), vehicle: saline with Tween-80) was 112 % of control and the T/C (dose: 100.0 mg/kg/injection, schedule: Q04DX003 (ip), vehicle: saline with Tween-80) was 124 % of control.

`CCCCCCC[As](C)(=O)O` was tested, and the T/C (dose: 12.5 mg/kg/injection, schedule: Q01DX001 (ip), vehicle: Klucel (hydroxypropylcellulose) (HPC)) was 104 % of control, the T/C (dose: 25.0 mg/kg/injection, schedule: Q01DX001 (ip), vehicle: Klucel (hydroxypropylcellulose) (HPC)) was 111 % of control and the T/C [3] was 96 % of control.

For `COc1cc[n+]([O-])cc1`, the T/C (dose: 100.0 mg/kg/injection, schedule: Q01DX009 (ip), vehicle: saline) was 95 % of control, the T/C (dose: 200.0 mg/kg/injection, schedule: Q01DX009 (ip), vehicle: saline) was 90 % of control and the T/C (dose: 400.0 mg/kg/injection, schedule: Q01DX009 (ip), vehicle: saline) was 95 % of control.

With `CC(C)(C)CC(C)(C)NC(=S)NC1C2CC3CC(C2)CC1C3` (stereo not drawn) the T/C [4] was 89 % of control and the T/C (dose: 100.0 mg/kg/injection, schedule: Q01DX009 (ip), vehicle: Klucel (hydroxypropylcellulose) (HPC)) was 90 % of control.

`COc1ccc(CSC(=S)Nc2ccc(Cl)c([N+](=O)[O-])c2)cc1` was tested, and the T/C (dose: 50.0 mg/kg/injection, schedule: Q01DX009 (ip), vehicle: suspension in saline) was 108 % of control, the T/C (dose: 100.0 mg/kg/injection, schedule: Q01DX009 (ip), vehicle: suspension in saline) was 99 % of control and the T/C (dose: 200.0 mg/kg/injection, schedule: Q01DX009 (ip), vehicle: suspension in saline) was 99 % of control.

For `Cc1ccc(Cl)cc1NC(=O)N(C)CCOC(=O)Nc1cccc(Cl)c1`, the T/C (dose: 60.0 mg/kg/injection, schedule: Q01DX005 (ip), vehicle: Klucel + Tween-80) was 93 % of control and the T/C (dose: 120.0 mg/kg/injection, schedule: Q01DX005 (ip), vehicle: Klucel + Tween-80) was 92 % of control.

With `COc1cc(C[C@@H]([C@@H](CO)Cc2ccc3c(c2)OCO3)[C@H](O)CO)cc(OC)c1OC` the T/C (dose: 6.25 mg/kg/injection, schedule: Q04DX002 (ip), vehicle: acetone) was 103 % of control, the T/C (dose: 12.5 mg/kg/injection, schedule: Q04DX002 (ip), vehicle: acetone) was 100 % of control and the T/C (dose: 25.0 mg/kg/injection, schedule: Q04DX002 (ip), vehicle: acetone) was 100 % of control.

For `COc1cc(OC)c(NC(=O)Nc2cc(Cl)ccc2Cl)cc1Cl`, the T/C [5] was 94 % of control and the T/C [6] was 91 % of control.

With `O=C(O)c1ccc2c(c1Cl)C(=O)c1ccccc1C2=O` the T/C (dose: 25.0 mg/kg/injection, schedule: Q04DX003 (ip), vehicle: Klucel (hydroxypropylcellulose) (HPC)) was 101 % of control, the T/C [7] was 101 % of control and the T/C [8] was 100 % of control.

With `CN(C)N=Nc1cn[nH]c1C(N)=O` the T/C [7] was 109 % of control and the T/C [9] was 161 % of control and 163 % of control.

`C/C(=N\NC(=S)N1CCCCC1C)c1nccs1` (stereo not drawn) was tested, and the T/C (dose: 12.5 mg/kg/injection, schedule: Q01DX005 (ip), vehicle: saline with Tween-80) was 100 % of control and 108 % of control, the T/C (dose: 25.0 mg/kg/injection, schedule: Q01DX005 (ip), vehicle: saline with Tween-80) was 104 % of control and 111 % of control and the T/C [10] was 112 % of control and 118 % of control.

In the case of `CCOP(=O)(N=Nc1ccc(OC)nc1)OCC`, the T/C [11] is reported as 102 % of control, the T/C [12] is reported as 109 % of control and the T/C [13] is reported as 100 % of control. The T/C (dose: 100.0 mg/kg/injection, schedule: Q01DX005 (ip), vehicle: saline) was 108 % of control, the T/C (dose: 1560.0 micrograms/kg/injection, schedule: Q01DX009 (ip), vehicle: saline) was 104 % of control and the T/C (dose: 3125.0 micrograms/kg/injection, schedule: Q01DX009 (ip), vehicle: saline) was 102 % of control. For the same compound, the T/C (dose: 6250.0 micrograms/kg/injection, schedule: Q01DX009 (ip), vehicle: saline) was 108 % of control, the T/C (dose: 12500.0 micrograms/kg/injection, schedule: Q01DX009 (ip), vehicle: saline) was 106 % of control and the T/C (dose: 25000.0 micrograms/kg/injection, schedule: Q01DX009 (ip), vehicle: saline) was 112 % of control.

`c1ccc(N=NC(c2ccccc2)(c2ccccc2)c2ccccc2)cc1` was tested, and the T/C [14] was 110 % of control, the T/C [15] was 110 % of control and the T/C [16] was 99 % of control. The T/C [4] was 107 % of control.

`O=C1C2=C(Nc3cc([N+](=O)[O-])ccc3N2)OC1c1ccccc1` (stereo not drawn) was tested, and the T/C (dose: 60.0 mg/kg/injection, schedule: Q01DX005 (ip), vehicle: Klucel (hydroxypropylcellulose) (HPC)) was 91 % of control, the T/C (dose: 120.0 mg/kg/injection, schedule: Q01DX005 (ip), vehicle: Klucel (hydroxypropylcellulose) (HPC)) was 91 % of control and the T/C (dose: 240.0 mg/kg/injection, schedule: Q01DX005 (ip), vehicle: Klucel (hydroxypropylcellulose) (HPC)) was 99 % of control.

In the case of `O=C(/C=N/O)Nc1ccccc1I`, the T/C (dose: 50.0 mg/kg/injection, schedule: Q01DX005 (ip), vehicle: Klucel (hydroxypropylcellulose) (HPC)) is reported as 100 % of control, the T/C (dose: 100.0 mg/kg/injection, schedule: Q01DX005 (ip), vehicle: Klucel (hydroxypropylcellulose) (HPC)) is reported as 98 % of control and the T/C (dose: 200.0 mg/kg/injection, schedule: Q01DX005 (ip), vehicle: Klucel (hydroxypropylcellulose) (HPC)) is reported as 115 % of control.

For `CCCN(C)CC(C)(O)CNc1cc(OC)cc2cccnc12` (stereo not drawn), the T/C [11] was 100 % of control, the T/C [12] was 95 % of control and the T/C [10] was 106 % of control. The T/C [13] was 99 % of control.

In the case of `Cc1sc(C)c(CCl)c1CCl`, the T/C [17] is reported as 113 % of control, the T/C [18] is reported as 118 % of control and the T/C (dose: 37.5 mg/kg/injection, schedule: Q01DX009 (ip), vehicle: saline with Tween-80) is reported as 122 % of control. For the same compound, the T/C [5] was 118 % of control.

In the case of `OCCN1CCN(CC/C=C2\c3ccccc3Sc3ccc(Cl)cc32)CC1`, the T/C (dose: 3.13 mg/kg/injection, schedule: Q01DX009 (ip), vehicle: saline) is reported as 102 % of control, the T/C (dose: 6.25 mg/kg/injection, schedule: Q01DX009 (ip), vehicle: saline) is reported as 113 % of control and the T/C (dose: 11.0 mg/kg/injection, schedule: Q01DX009 (ip), vehicle: saline with Tween-80) is reported as 109 % of control. The T/C (dose: 50.0 mg/kg/injection, schedule: Q04DX003 (ip), vehicle: saline) was 88 % of control.

`Cc1ccc(C#N)s1` was tested, and the T/C (dose: 3.12 mg/kg/injection, schedule: Q01DX009 (ip), vehicle: saline with Tween-80) was 104 % of control, the T/C (dose: 6.25 mg/kg/injection, schedule: Q01DX009 (ip), vehicle: saline with Tween-80) was 103 % of control and the T/C [17] was 102 % of control. The T/C [18] was 95 % of control.

For `CC1=CC=C(C(=O)C(Br)C(Br)c2ccccc2)C1` (stereo not drawn), the T/C [14] was 92 % of control, the T/C [15] was 92 % of control and the T/C [16] was 89 % of control.

With `ICCN(CCI)c1ccc2c(ccc3ccccc32)c1` the T/C [8] was 102 % of control, the T/C [9] was 118 % of control and the T/C (dose: 400.0 mg/kg/injection, schedule: Q04DX003 (ip), vehicle: Klucel (hydroxypropylcellulose) (HPC)) was 118 % of control.

`CC(=O)OC1C(C)OC(OC(=O)C2CCC3C(C2)OC2(CC(OC(=O)/C=C/c4ccccc4)C(C)CO2)C32CO2)C(OC2OC(C)C(O)C(O)C2O)C1O` (stereo not drawn) was tested, and the T/C (dose: 2.5 mg/kg/injection, schedule: Q01DX005 (ip), vehicle: saline + alcohol) was 96 % of control, the T/C (dose: 5.0 mg/kg/injection, schedule: Q01DX005 (ip), vehicle: saline + alcohol) was 102 % of control and 107 % of control and the T/C (dose: 10.0 mg/kg/injection, schedule: Q01DX005 (ip), vehicle: saline + alcohol) was 112 % of control.

In the case of `O=C1C=C2SCCN2C(=O)C1`, the T/C [18] is reported as 101 % of control, the T/C [5] is reported as 92 % of control and the T/C [6] is reported as 97 % of control. The T/C (dose: 200.0 mg/kg/injection, schedule: Q01DX009 (ip), vehicle: saline with Tween-80) was 99 % of control.

From PubChem BioAssay AID330 (DTP/NCI, 2004)
